# Test results published in article PMC10586543 (Advanced functional materials, 2023).
# What was measured:
# [1] = target: human recombinant MMP-9 (Homo sapiens, UniProt P14780); assay: In vitro specificity reaction with off-target protease; conditions: free peptide; 15 nM human recombinant MMP-9; TCNB buffer; 37 °C, 1 h; fluorescence (Figure S2)
# [2] = target: human α-thrombin (Homo sapiens, UniProt P00734); assay: as above; conditions: free peptide; 13.5 nM human α-thrombin; TCNB buffer; 37 °C, 1 h; fluorescence (Figure S2)
# human recombinant MMP-9, sequence (P14780 107-444 limits assumed): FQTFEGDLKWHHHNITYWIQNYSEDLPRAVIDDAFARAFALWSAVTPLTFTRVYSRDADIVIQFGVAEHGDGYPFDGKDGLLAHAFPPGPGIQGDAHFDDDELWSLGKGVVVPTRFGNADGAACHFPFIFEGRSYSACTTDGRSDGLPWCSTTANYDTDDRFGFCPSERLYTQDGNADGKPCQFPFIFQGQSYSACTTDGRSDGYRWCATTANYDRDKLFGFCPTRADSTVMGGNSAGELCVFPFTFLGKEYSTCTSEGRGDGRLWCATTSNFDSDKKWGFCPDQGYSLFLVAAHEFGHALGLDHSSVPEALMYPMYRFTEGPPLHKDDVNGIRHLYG
substance,measurement,setting,value
Biotin-GGSGG-K(5FAM)-QEVYGAMP-K(CPQ2)-C-NH2 [calpain substrate peptide],activation after incubation with MMP9,[1],did not activate
same,activation after incubation with α-thrombin,[2],did not activate
